Where a name gives a salt, the structure may show the parent alone. {Cy5} = Cy5 fluorescent dye label
How the values were obtained:
CYP 450 3A2 (rat) = test: Gene expression analysis on ER chip: CYP 450 induction in rat liver; settings: rat liver cDNA, 80 mg/kg daily on 4 consecutive days, normalized treated/control, mean of 10 replicates
Experimental: (§1) Sensor platforms (dimensions 18×18 mm^2) of the type described with reference to FIG. 2 wee first sonicated twice in chloroform (FLUKA, “purriss.”) and subsequently twice in isopropanol (Merck, “Uvasol”); each for 15 min. The platform were then dried in vacuum and cleaned in a UV cleaner for 30 min (Boeckel industries Inc, model 135500). O-xylene was heated to 75° C. (stirring) and 2% v/v 3-glycidoxypropyl trimethoxysilane (Fluka, “purum”) as well as 0.2% v/v N-ethyldiisopropylamine (Fluka, “purum”) were added to the heated solvent (stirring). The platforms were mounted into racks and then incubated for 7 h in the solution at 75° C. (stirring). Subsequently, the platforms were sonicated three times in fresh acetonitrile (Fluka, “HPLC grade”), each for 15 min. The platforms were then sonicated in a solution of 2% v/v 3-amino-1-propanol (Fluka, “purum”) in acetonitrile for 15 min and then incubated in the same solution over night at room temperature (stirring). Next day, the platforms were first sonicated three times for 15 min in fresh isopropanol (Fluka, “HPLC grade”) and then three times for 15 min in flesh methanol (Merck, “Uvasol”). Finally, the platforms were dried and stored in vacuum. b) Immobilization of Recognition Elements Arrays consisting of 10 different cDNAs (each cDNA 10 replicates: CYP 450 1A1, CYP 450 2B1 EST., CYP 450 2B1, CYP 450 2B2, CYP 450 3A1 human, CYP 450 3A2, CYP 450 4A1, β-actin, GAPDH, external standard) were printed on the platforms with an ink-jet printer (Microdrop GmbH, Norderstedt, Germany). The concentration of the cDNA solutions was 50 ng/μL. The diameter (10 ink-jet droplets/position) was about 250 μm and pitch of the spots was about 500 μm. Therefore, the overall dimension of the 10×10 arrays was about 5×5 mm^2. The arrays were printed in the centre of the platforms with the dimensions (18×18 mm^2). Subsequently, the platforms were incubated over night in a closed container in saturated water vapor atmosphere. Next day, the incubated chips can be baked for a defined period, say 1 minute at 80° C.

CYP 450 4A1 (rat) = test: as above; settings: rat liver cDNA, 80 mg/kg daily on 4 consecutive days, normalized treated/control, mean of 10 replicates
Experimental: as §1

GAPDH (rat) = test: as above; settings: rat liver cDNA, 80 mg/kg daily on 4 consecutive days, normalized treated/control, mean of 10 replicates
Experimental: as §1

CYP 450 2B1 EST.(rat) = test: as above; settings: rat liver cDNA, 80 mg/kg daily on 4 consecutive days, normalized treated/control, mean of 10 replicates
Experimental: as §1

CYP 450 2B2 (rat) = test: as above; settings: rat liver cDNA, 80 mg/kg daily on 4 consecutive days, normalized treated/control, mean of 10 replicates
Experimental: as §1

CYP 450 3A1 (human) = test: as above; settings: rat liver cDNA, 80 mg/kg daily on 4 consecutive days, normalized treated/control, mean of 10 replicates
Experimental: as §1

β-actin (rat) = test: as above; settings: rat liver cDNA, 80 mg/kg daily on 4 consecutive days, normalized treated/control, mean of 10 replicates
Experimental: as §1

CYP 450 2B1 (rat) = test: as above; settings: rat liver cDNA, 80 mg/kg daily on 4 consecutive days, normalized treated/control, mean of 10 replicates
Experimental: as §1

CYP 450 1A1 (rat) = test: as above; settings: rat liver cDNA, 80 mg/kg daily on 4 consecutive days, normalized treated/control, mean of 10 replicates
Experimental: as §1

[1] = tested on: cPM and cMM capture oligonucleotides; test: Oligonucleotide microchip SNP discrimination, cPM versus cMM spots; format: binding; settings: 30 pM analyte, 30 min incubation, room temperature
Experimental: (§2) Sensor platforms (dimensions 18×18 mm2) of the type described with reference to FIG. 2 we first sonicated twice in chlororform (FLUKA, “purum”) and subsequently twice in isopropanol (Merck, “Uvasol”), each 15 min. […] O-xylene was heated to 75° C. […] (stirring). Subsequently, the platforms were washed three times with fresh acetonitrile (Fluka, “HPLC grade”) each for 15 min. Finally the platforms were dried and stored under vacuum. b. Immobilization of Capture Elements
Two different amino-modified oligonucleotides (capture probes) were printed in a checkerboard-like layout (5×5=25 spots) onto the silanized platforms. A GMS 417 ring-pin arrayer was used for the printing (Genetic Microsystems, Boston, Mass.). The concentration of the oligonucleotides used as capture molecules was 100 nmol/ml. Diameter of the spots was 125 micrometer with 500 micrometer centre-to-centre distance. The 2 oligonucleotides were called cPM (“capture perfect match”) and cMM (“capture mismatch”) and differ only in one base:
cPM and cMM were labeled with an amino group at the 5′ end which enables covalent binding of the oligonucleotides to the epoxy-functionalized platforms. […] Next day the chips were dried and then washed with 1 ml of aqueous 50% urea solution. Alternatively, an aqueous bovine serum albumine solution (BSA, 1 mg/ml) was used. After blocking the chips were flushed with deionized water and then dried with nitrogen flow. c. Detection Set-Up The CCD set-up described in the previous example was used. d. Chip Cartridge The cartridge described in the previous example was used. e. Analytes/Samples […]
The concentration of the analyte solutions was 30 pM each. f. […] After 30 min of incubation, the platform was washed with 1 ml of HB and a fluorescence image (“PM” in FIG. 9a) was taken in the resonance position of the chip. Subsequently, the bound fluorescence labeled oligonucleotides were removed (stripped) by injection of 2×1 ml of an aqueous 50% urea solution with 2 min of delay between the injections. After additional 2 min the chip was washed by injection of 2×1 ml HB with 2 min delay between the injections and a fluorescence image (“regeneration” in FIG. 9b) was taken in the resonance position of the chip. […] After 30 min of incubation, the platform was again washed with 1 ml of 1B and a fluorescence image (“MM” in FIG. 9c) was taken in the resonance position of the chip. […] Data Processing The mean intensity of the 2 different groups of capture spots (cPM and cMM) was calculated for both experiments (incubation of 30 pM PM analyte and 30 pM MM analyte). In addition, the difference of the mean intensity cPM-cMM and the ratio cPM/cMM was calculated. h. […]

[2] = tested on: cPM (capture perfect match) oligonucleotide; test: Oligonucleotide microchip hybridization (SNP discrimination), cPM capture spots; format: binding; settings: 30 pM analyte, 30 min incubation, room temperature, fluorescence at resonance position
Experimental: as §2
(§3) Two different amino-modified oligonucleotides (capture probes) were printed in a checkerboard-like layout (5×5=25 spots) onto the silanized platforms. […]
(§4) The concentration of the analyte solutions was 30 pM each. f. […] After 30 min of incubation, the platform was washed with 1 ml of HB and a fluorescence image (“PM” in FIG. 9a) was taken in the resonance position of the chip. Subsequently, the bound fluorescence labeled oligonucleotides were removed (stripped) by injection of 2×1 ml of an aqueous 50% urea solution with 2 min of delay between the injections. After additional 2 min the chip was washed by injection of 2×1 ml HB with 2 min delay between the injections and a fluorescence image (“regeneration” in FIG. 9b) was taken in the resonance position of the chip. […] After 30 min of incubation, the platform was again washed with 1 ml of 1B and a fluorescence image (“MM” in FIG. 9c) was taken in the resonance position of the chip. […]

[3] = tested on: cMM (capture mismatch) oligonucleotide; test: Oligonucleotide microchip hybridization (SNP discrimination), cMM capture spots; format: binding; settings: 30 pM analyte, 30 min incubation, room temperature, fluorescence at resonance position
Experimental: as §2, §3, §4

Molecule	Fold change CYP 450 3A2 (rat) (CYP 450 3A2 (rat))	Fold change CYP 450 4A1 (rat) (CYP 450 4A1 (rat))	Fold change GAPDH (rat) (GAPDH (rat))	Fold change CYP 450 2B1 EST.(rat) (CYP 450 2B1 EST.(rat))	Fold change CYP 450 2B2 (rat) (CYP 450 2B2 (rat))	Fold change CYP 450 3A1 (human) (CYP 450 3A1 (human))	Fold change β-actin (rat) (β-actin (rat))	Fold change CYP 450 2B1 (rat) (CYP 450 2B1 (rat))	Fold change CYP 450 1A1 (rat) (CYP 450 1A1 (rat))	difference of the mean intensity cPM − cMM [1]	ratio cPM/cMM of mean intensity [1]	mean intensity, cPM spots [2]	mean intensity, cMM spots [3]
CCC1(c2ccccc2)C(=O)NC(=O)NC1=O [phenobarbital, sodium salt]	2.5	1.6	2.3	16	32	3.2	2.1	25	1.6	–	–	–	–
Cy5-5′GTGTTAAGGTGT3′ (NTGTTAAGGTGT; 5' {Cy5}, sugars by position, backbone and the base at N not given here) [PM]	–	–	–	–	–	–	–	–	–	1116 counts	48	1140 counts	24 counts
Cy5-5′GTGTTGAGGTGT3′ (NTGTTGAGGTGT; 5' {Cy5}, sugars by position, backbone and the base at N not given here) [MM]	–	–	–	–	–	–	–	–	–	−1371 counts	0.34	704 counts	2075 counts

Reference: patent publication US7820106B2, “Sensor platform, apparatus incorporating the platform and process using the platform” (Novartis AG, priority 1999, dated 2010)
